Molecules are shown by their SMILES. Like-named read-outs stand apart in the source and are kept apart here.

This is an account of results in US9265808B2, “Compositions for alleviating inflammation and oxidative stress in a mammal” (priority 2004, dated 2016).

Data set [1] is described as follows: Blood pressure of human subjects. To be noted: Subject #2, ATENOLOL 25 mg/day alone.
Experimental: The approximate daily dosage of each of the components of the herb-containing composition was as follows: B. monnieri extract (200 mg), Milk Thistle extract 70-80% (300 mg), Ashwagandha powder (200 mg), Turmeric extract (95%) (100 mg), Gotu kola powder (200 mg), Aloe vera powder (200 mg), Green tea (98% Polyphenols 45% EGCG) (100 mg), and Ginko biloba leaf extract (200 mg).
The approximate daily dosage of each of the components of the herb-containing composition was as follows: B. monnieri extract (134 mg), Milk Thistle extract 70-80% (200 mg), Ashwagandha powder (134 mg), Turmeric extract (95%) (67 mg), Gotu kola powder (134 mg), Aloe vera powder (134 mg), Green tea (98% Polyphenols, 45% EGCG) (67 mg), and Ginko biloba leaf extract (134 mg).
The test system of data set [2] is HO-1. Briefly: Protandim®-induced HO-1 protein in presence of signaling pathway inhibitors, SK-N-MC cells. Conditions: for decrease of Protandim®-mediated increase in HO-1 expression in presence of inhibitor: 20 μM SB203580 or 1 μM rottlerin 30 min. It is filed as cell-based, human. The procedure:
To identify the signaling pathway(s) involved in HO-1 promoter induction by Protandim®, different pharmacological inhibitors that specifically block each of the following pathways were used: 5-(2-benzothiazolyl)-3-ethyl-2-[2-(methylphenylamino) ethenyl]-1-phenyl-1H-benzimidazolium iodide (Akt inhibitor IV) for Akt, LY294002 for PI3-kinase, SP600125 for JNK, U0126 for MEK/ERK, SB203580 for p38MAPK, and rottlerin for PKCδ. SK-N-MC cells were preincubated in the presence of 250 nM Akt inhibitor IV, 30 μM LY294002, 1 μM rottlerin, 10 μM U0126, 20 μM SB203580, or 20 μM SP600125 for 30 min followed by exposure to 20 μg/ml Protandim® for 24 h. Cell lysates were electrophoresed and immunoblotted for HO-1. The blots were then reprobed with the antibody for β-actin. […] The intensities of the bands were quantified by densitometry using Fluor-S MultiImager and Quantity One software from Bio-Rad. HO-1 levels were corrected for β-actin expression.

Data set [3] deals with HO-1 promoter. In words: HO-1 promoter luciferase reporter assay in MIN6 cells. It counts as cell-based, mouse. Conditions: concentration present in the maximum dose of Protandim® (40 μg/ml).
Experimental: (§1) The induction of HO-1 by Protandim® was tested by transient transfection of its promoter linked to the luciferase reporter gene in MIN6 cells, a mouse insulinoma cell line, and in SK-N-MC cells, a human neuroblastoma cell line, as reported in Velmurugan, K. et al., “Synergistic induction of heme oxygenase-1 by the components of the antioxidant supplement Protandim,” Free Radical Biology & Medicine, 46: 430-440 (2009), the entire disclosure of which is incorporated herein by reference.
(§2) The alcohol extract of Protandim® was prepared by shaking 675 mg of Protandim with 16.875 ml of 95% ethanol overnight at 4° C. and centrifuging at 5000 rpm (4° C.) for 5 min, and the extract (40 mg/ml) was stored at −80° C. For studies on synergy, the individual components present in 675 mg of Protandim® were extracted in the same volume of alcohol by a similar procedure. Parallel preparations of Protandim® extracts were also prepared with one of the components omitted. […] Controls were treated with the same volume of alcohol used in the treated groups. […]
(§3) After freezing and thawing, the lysates were centrifuged (10,600 g; 20 min) to collect the supernatant. Firefly luciferase and Renilla luciferase activities from transfected cells were measured using the Dual-Glo Luciferase Assay System (Promega). […]
Data set [4] relates to HO-1 promoter. Briefly: HO-1 promoter luciferase reporter assay in SK-N-MC cells. It is filed as cell-based, human. Conditions: concentration present in the maximum dose of Protandim® (20 μg/ml). In general terms: Reporter assays use an easily measured gene product as a stand-in for the process of interest.
Experimental: as §1, §2, §3
Data set [5] has as its system HO-1. Briefly: HO-1 protein by Western blot in MIN6 cells. It is filed as cell-based, mouse. Conditions: ethanolic extracts at maximum doses of Table 10 (Protandim® 40 μg/ml).
Text: (§4) After treatment with Protandim® extracts, MIN6 and SK-N-MC cells were washed with ice-cold PBS. Cells were lysed with mammalian protein extraction reagent (Pierce, Rockford, Ill., USA) containing phosphatase inhibitors and protease inhibitor cocktail. […] Diluted samples containing equal amounts of protein were mixed with 2× Laemmli sample buffer and subjected to electrophoresis on 12% SDS-polyacrylamide gels. After transfer to polyvinylidene difluoride membranes, the membranes were blocked with TBST [20 mM Tris-HCl (pH 7.9), 8.5% NaCl, and 0.1% Tween 20] containing 5% nonfat dry milk at room temperature for 1 h and exposed to primary antibodies (1:1000) in TBST containing 5.0% BSA at 4° C. overnight. After being washed in blocking solution, the membranes were exposed to secondary antibodies conjugated to alkaline phosphatase and developed with CDP-Star reagent (New England Biolabs, Beverly, Mass., USA). The intensity of the protein bands was visualized using Fluor-S Multi-Imager and Quantity One software from Bio-Rad. […]
(§5) Cell lysates were processed for Western blot analysis of HO-1, and the blots reprobed for β-actin. The intensities of bands were quantitated by scanning in a MultiImager using Quantity One software (Bio-Rad), and HO-1 expression was corrected for β-actin levels.
Data set [6] concerns HO-1. Briefly: HO-1 protein by Western blot in SK-N-MC cells. Conditions: ethanolic extracts at maximum doses of Table 10 (Protandim® 20 μg/ml). It counts as cell-based, human.
Text: as §4, §5
The conditions of data set [7]: pH of 1.0; cited from earlier work.
Data set [8] has as its system Nrf2. In words: AREc32 bioassay for Nrf2 activation. An excerpt:
The assay for Nrf2 activation is based on the AREc32 cell line, developed by Dr. C. R. Wolf and colleagues of the University of Dundee, Scotland, as described in Wang, X. J. et al., “Generation of a stable antioxidant response element-driven reporter gene cell line and its use to show redoxdependent activation of Nrf2 by cancer chemotherapeutic agents,” Cancer Res. 66, 10983-10994 (2006); Hybertson, B. M. et al., “Oxidative stress in health and disease: the therapeutic potential of Nrf2 activation,” Molecular Aspects of Medicine, 32: 234-246 (2011), the entire disclosure of each of which is incorporated herein by reference. The AREc32 cell line is a stable transfectant derived from the MCF7 human breast cancer cell line. It contains a promoter with eight copies of the rat glutathione-S-transferase-A2 Antioxidant Response Element (ARE) and the SV40 promoter sequence upstream of a firefly luciferase reporter gene.
Briefly, AREc32 cells were grown in Opti-MEM (GIBCO, Carlsbad, Calif.) supplemented with 4% fetal bovine serum (FBS, GIBCO) and 1% Antibiotic-Antimycotic (GIBCO) at 37° C. and in a 10% CO 2-supplemented air atmosphere. The cells were seeded at 1% to 5% of confluent cell density in T75 tissue culture flasks and cultivated until they approached confluence. The medium was aspirated off and the adherent cells trypsinized with 1 ml of 1× Trypsin-EDTA solution (GIBCO) for 10 min. Ten milliliters of medium was added to the flask and the cells transferred to a 50 ml centrifuge tube and centrifuged at 1000 rpm for 5 min at room temperature. Cells were washed once with 10 ml of medium, then resuspended in 10 ml of medium. Cells were counted using a hemocytometer and diluted to a concentration of 50,000 cells/ml. Four hundred microliters of this cell suspension was seeded into each well of a 24-well plate (i.e. 20,000 cells/well). Seeded plates were then returned to the incubator for 24 h.
After 18-24 h the cells were reattached and growing, and ready for treatment with samples with putative Nrf2 activating activity. […] Vehicles used were aqueous or organic solvents such as ethanol or DMSO, and appropriate vehicle controls were included. The cells were then returned to the incubator for 18 h. All operations up to this point must be conducted under sterile conditions.
After 24 h the cells were checked under the microscope for any abnormalities or detachment. The medium was aspirated and the cells were washed with phosphate buffered saline, pH 7.4 (100 μl/well). Following aspiration of the wash solution, the cells were lysed by application of 0.1 M potassium phosphate buffer, pH 7.8, containing 1% Triton X-100, 2 mM dithiothreitol, 2 mM EDTA, 10% glycerol and 3.5 mM sodium pyrophosphate (100 μl/well). The plate was incubated at 4° C. for 20 min. Lysate (20 μl from each well in a new 12×75 mm glass test tube) was assayed for luciferase activity using a Monolight 3010 autoinject luminometer (Analytical Luminescence Laboratory, Ann Arbor, Mich.), automatically injecting 50 of Luciferase Assay Buffer after background measurement. Luciferase Assay Buffer was prepared by mixing 9 ml of Solution A (15 mM Tricine, pH 7.8, containing 1.5 mM ATP, 7.5 mM MgSO 4, and 5 mM dithiothreitol) with 1 ml of Solution B 10 mM D-luciferin). After a 4 delay following injection, luminescence was measured for 10 s. Relative Light Units (RLU) were recorded for the contents of each well. Fold Induction (FI) of luciferase activity was calculated by dividing the RLU obtained for the test well by the average RLU obtained for control wells (which received no putative Nrf2 activator). Each assay or control was performed in duplicate. Parameters noted were the concentration of test substance providing maximal fold induction of luciferase (Cmax), and the maximal fold induction observed (FImax).
The AREc32 cells were prepared as in Example 7. After 18-24 h the cells were reattached and growing, and ready for treatment with samples with putative Nrf2 activating activity. […]

Where [9] appears, read: SK-N-MC, 250 nM Akt inhibitor IV, 30 μM LY294002, 10 μM U0126, 20 μM SP600125, 30 min, then 20 μg/ml Protandim® 24 h.
Setting [10] is: SK-N-MC, then 20 μg/ml Protandim® 24 h.
The mark [11] stands for this setting: AREc32 cells, biphasic induction.

For the compound `CC(C)NCC(O)COc1ccc(CC(N)=O)cc1` (stereo not shown) [ATENOLOL], the lowest diastolic measurement in data set [1] amounted to 91.

Consider `CC[n+]1c(/C=C/N(C)c2ccccc2)n(-c2ccccc2)c2ccc(-c3nc4ccccc4s3)cc21` [Akt inhibitor IV, 5-(2-benzothiazolyl)-3-ethyl-2-[2-(methylphenylamino)ethenyl]-1-phenyl-1H-benzimidazolium iodide], for which, in data set [2] (setting [9]), the “effect of inhibitor on Protandim®-induced increase in HO-1 protein levels” value was “significant (p<0.001) decrease”. For the compound `COc1cc(/C=C/C(=O)CC(=O)/C=C/c2ccc(O)c(OC)c2)ccc1O` [Curcumin], the “HO-1 promoter induction by individual ingredient” value in data set [3] is reported as 36%; in data set [4], 300%. The “increase of HO-1 protein level” value in data set [5] and in data set [6] was 6 fold in each case. On to `N[C@@H](CCC(=O)N[C@@H](CS)C(=O)NCC(=O)O)C(=O)O` [GSH, L-γ-glutamyl-L-cysteinyl-glycine], for which the “rate constant K2 against the hydroxyl radical” value in data set [7] was 8.8×10^9. `CC(=O)N[C@@H](CS)C(=O)O` [NAC, N-Acetyl Cysteine]: in data set [7], the rate constant K2 against the hydroxyl radical is 1.36e+10 M⁻¹ s⁻¹. On to `C[S+]([O-])c1ccc(-c2nc(-c3ccncc3)c(-c3ccc(F)cc3)[nH]2)cc1` (stereo not shown) [SB203580], for which, in data set [2] (setting [10]), the “decrease of Protandim®-mediated increase in HO-1 expression in presence of inhibitor” value came to 50%. For the compound `Oc1c2ccccc2c2c3c(cccc13)N=N2` [SP600125], the “effect of inhibitor on Protandim®-induced increase in HO-1 protein levels” value in data set [2] (setting [9]) is “No significant effect”. For `N#CC(=C(/N)Sc1ccccc1N)/C(C#N)=C(\N)Sc1ccccc1N` [U0126], the “effect of inhibitor on Protandim®-induced increase in HO-1 protein levels” value in data set [2] is on record as “No significant effect”. `CC1=C(CO)C(=O)O[C@@H]([C@@H](C)[C@H]2CC[C@H]3[C@@H]4C[C@H]5O[C@]56[C@@H](O)C=CC(=O)[C@]6(C)[C@H]4CC[C@]23C)C1` [Withaferin A]: the “concentration providing maximal fold induction of luciferase (Cmax)” value worked out at 2100 nM in data set [8] (AREc32 cells, 18 h) and 1000 ng/mL in data set [8] (AREc32 cells, 18 h, ethanolic extract).

On to `COC(=O)[C@]12CCC(C)(C)C[C@H]1[C@H]1C(=O)C=C3[C@@]4(C)C=C(C#N)C(=O)C(C)(C)[C@@H]4CC[C@@]3(C)[C@]1(C)CC2` [bardoxolone methyl], for which the “maximal fold induction observed (FImax)” value in data set [8] is on record as 67 fold. Further, in data set [8] (setting [11]), the “lower end of concentration range producing near maximal FI” value is listed as “less than 40 nM” and the upper end of concentration range producing near maximal FI was 0.4 µM. As for `CC(=O)c1c(O)c(C)c(O)c(Cc2c(O)c3c(c(C(=O)/C=C/c4ccccc4)c2O)OC(C)(C)C=C3)c1O` [rottlerin], in data set [2] (setting [10]), the “decrease of Protandim®-mediated increase in HO-1 expression in presence of inhibitor” value was 50%. For `C[S+]([O-])CCCCN=C=S` (stereo not shown) [sulforaphane], the “maximal fold induction observed (FImax)” value in data set [8] (human, 18 h) came to 21 fold. `CC(C)(C)c1cc(O)ccc1O` [tert-butyl-hydroquinone]: the “increase of luciferase activity” value in data set [8] (AREc32 cells, 50 μmol/L) is reported as “up to 50 fold”.
